According to article PMC10590383, “Repurposing conformational changes in ANL superfamily enzymes to rapidly generate biosensors for organic and amino acids” (Nature Communications, 2023):

Target: T1, GECFINDER-Phe3 (Aneurinibacillus migulanus, UniProt P0C061)
T1 construct: gene grsA; GrsA-PheA-PCP; cpEGFP inserted in hinge B, linkers VF-QS
T1 sequence (P0C061 1-617): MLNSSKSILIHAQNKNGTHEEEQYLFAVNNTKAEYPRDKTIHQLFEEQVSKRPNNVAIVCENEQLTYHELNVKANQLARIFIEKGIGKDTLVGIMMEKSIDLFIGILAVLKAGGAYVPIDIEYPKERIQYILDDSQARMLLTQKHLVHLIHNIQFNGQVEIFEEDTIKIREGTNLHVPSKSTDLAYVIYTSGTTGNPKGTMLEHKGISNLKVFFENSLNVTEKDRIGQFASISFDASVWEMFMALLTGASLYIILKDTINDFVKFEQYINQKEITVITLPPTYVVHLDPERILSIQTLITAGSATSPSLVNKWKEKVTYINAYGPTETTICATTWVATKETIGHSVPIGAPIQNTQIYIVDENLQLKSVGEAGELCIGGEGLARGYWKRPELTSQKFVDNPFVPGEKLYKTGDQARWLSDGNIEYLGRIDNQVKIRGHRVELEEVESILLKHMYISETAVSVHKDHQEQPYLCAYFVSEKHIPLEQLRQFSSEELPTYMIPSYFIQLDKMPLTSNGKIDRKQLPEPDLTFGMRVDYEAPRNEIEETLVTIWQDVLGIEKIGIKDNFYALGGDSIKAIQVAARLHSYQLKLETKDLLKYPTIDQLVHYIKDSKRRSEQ
Test: Fluorescence dose-response of purified […]-Phe3 with phenylalanine in 100 mM Tris at pH 8.5, room temperature, 1 mM ATP, 2.5 mM MgCl2.
Assay type: biochemical
Conditions: n = 3
Description: As cpEGFP is sensitive to pH, we conducted a dose-response curve and fluorescence intensity analysis of […]-Phe3 at varying pH levels. […] In addition, we expanded the range of ligand-binding domains (LBDs) applicable to […] and attempted optimization of insertion sites for cpEGFP with limited success. Please refer to Supplemental Note 1 for detailed information.
The study conducted dose–response curve, substrate specificity, and fluorescent spectrum analyses in 100-mM Tris buffer (pH = 7.5), while pH stability experiments were performed in 100-mM Tris buffer at three different pH values (6.5, 7.5, and 8.5) at room temperature. […] Fluorescent signals were detected using a Microplate Reader (Synergy H4, Bio Tek) at an excitation/emission wavelength of 460 nm/510 nm or 480 nm/510 nm. The dose-response curve was determined immediately after the addition of the analyte. The total duration of the measurement was 15 min, with readings taken at one-minute intervals. The dose-response curve was plotted using the fluorescence values obtained after achieving stability in the fluorescence signal. […] The thermal stability of […] was analyzed using the UNcle multifunctional protein stability analysis system. […] Absolute fluorescence quantum yields were measured using an absolute photoluminescence quantum yield spectrometer (FS5, Edinburgh). […]

N[C@@H](Cc1ccccc1)C(=O)O [Phe, phenylalanine]
EC50: 2.38 µM
